According to patent publication US6444617B1, “Fused-heterocycle dicarboxylic acid diamide derivatives or salts thereof, herbicide and usage thereof” (Nihon Nohyaku Co., Ltd., priority 1998, dated 2002):

Legend:
Format in all cases: in vivo
[1] = system: barnyard grass (Echinochloa crus-galli Beauv.), Ec; test: Test Example 3: herbicidal effect on upland weeds before emergence; settings: dosage 5 kg/ha
Outline: (§1)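 Steps: sow upland weed seeds; spray liquid formulation of active ingredient at prescribed concentration prior to emergence; after 14 days, calculate weed-killing rate; judge herbicidal effect.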

[2] = system: cocklebur (Xanthium strumarium L.), Xs; test: as above; settings: dosage 5 kg/ha
Outline: as §1

[3] = system: cleavers (Galium aparine L.), Ga; test: as above; settings: dosage 5 kg/ha
Outline: as §1

[4] = system: forxtail grass (Alopecurus aequalis var. amurensis Ohwi), Am; test: as above; settings: foxtail grass, dosage 5 kg/ha
Outline: as §1

[5] = system: bird's eye speedwell (Veronica persica Poir.), Vp; test: as above; settings: dosage 5 kg/ha
Outline: as §1

[6] = system: velvetleaf (Abutilon theophtasti L.), At; test: as above; settings: dosage 5 kg/ha
Outline: as §1

soybean plant (So) = test: Test Example 3: phytotoxicity to upland crop plants, treatment before emergence; settings: dosage 5 kg/ha
Outline: (§2)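 Phytotoxicity scores for soybean and wheat were assigned by a set criterion 14 days after a pre-emergence spray of a liquid preparation containing the test compound at a prescribed concentration.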

wheat (Wh) = test: as above; settings: dosage 5 kg/ha
Outline: as §2

wheat = test: Test Example 4: phytotoxicity to upland crop plants, treatment after emergence; settings: dosage 5 kg/ha, sprayed after emergence, judged 14 days after treatment
Outline: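 Scores of weed-killing rate, with crop phytotoxicity, come from inspection 14 days after plants in soil vats, grown to specified leaf stages, are sprayed with a formulation holding the compound at a prescribed concentration.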

soybean plant = test: as above; settings: dosage 5 kg/ha, sprayed after emergence, judged 14 days after treatment
Outline: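 Upland weeds and crop plants (soybean, wheat) are grown from seed in soil until they reach given leaf stages, then treated by spraying with the compound-containing agent; effects are judged two weeks later.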

[7] = system: bulrush (Scirpus juncoides Roxb.); test: Test Example 1: herbicidal effect on paddy field weeds before emergence; settings: Dosage 5 kg/ha
Outline: (§3)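 Grading reflects percent control relative to untreated plots, evaluated three weeks post-application. Treatment was a soil application of compound solution, predetermined dose, made to paddy-state pots before weed seeds germinated.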

[8] = system: barnyard grass (Echinochloa crus-galli Beauv.); test: as above; settings: Dosage 5 kg/ha
Outline: as §3

[9] = system: monochoria (Monochoria vaginalis Presl); test: Test Example 2: herbicidal effect on paddy field weeds after emergence; settings: Dosage 5 kg/ha; one-leaved stage; 21 days after treatment
Outline: (§4)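 Weeds in flooded paddy-soil pots were grown to the one-leaved stage, then the soil was treated with the compound solution at a set dosage.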

[10] = system: bulrush (Scirpus juncoides Roxb.); test: as above; settings: Dosage 5 kg/ha; one-leaved stage; 21 days after treatment
Outline: as §4

[11] = system: barnyard grass (Echinochloa crus-galli Beauv.); test: as above; settings: Dosage 5 kg/ha; one-leaved stage; 21 days after treatment
Outline: as §4

[12] = system: barnyard grass (Echinochloa crus-galli Beauv.), Ec; test: Test Example 4: herbicidal effect on upland weeds after emergence; settings: dosage 5 kg/ha; sprayed after emergence; judged 14 days after treatment
Outline: (§5)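 Seeds sown in soil and covered. Plants raised to specified leaf stages. Agent with test compound at a prescribed concentration sprayed. Herbicidal effect and crop damage scored after 14 days as weed-killing rate.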

[13] = system: cocklebur (Xanthium strumarium L.), Xs; test: as above; settings: dosage 5 kg/ha; sprayed after emergence; judged 14 days after treatment
Outline: as §5

[14] = system: cleavers (Galium aparine L.), Ga; test: as above; settings: dosage 5 kg/ha; sprayed after emergence; judged 14 days after treatment
Outline: as §5

[15] = system: forxtail grass (Alopecurus aequalis var. amurensis Ohwi), Am; test: as above; settings: dosage 5 kg/ha; sprayed after emergence; judged 14 days after treatment
Outline: as §5

[16] = system: bird's eye speedwell (Veronica persica Poir.), Vp; test: as above; settings: dosage 5 kg/ha; sprayed after emergence; judged 14 days after treatment
Outline: as §5

[17] = system: velvetleaf (Abutilon theophtasti L.), At; test: as above; settings: dosage 5 kg/ha; sprayed after emergence; judged 14 days after treatment
Outline: as §5

| Compound | Herbicidal effect Ec [1] | Herbicidal effect Xs [2] | Herbicidal effect Ga [3] | Herbicidal effect Am [4] | Herbicidal effect Vp [5] | Herbicidal effect At [6] | Phytotoxicity So (soybean plant (So)) | Phytotoxicity Wh (wheat (Wh)) | Phytotoxicity Wh (wheat) | Phytotoxicity So (soybean plant) | Pre-emergence treatment Bulrush (herbicidal effect) [7] | Pre-emergence treatment Barnyard grass (herbicidal effect) [8] | Post-emergence treatment Monochoria (herbicidal effect) [9] | Post-emergence treatment Bulrush (herbicidal effect) [10] | Post-emergence treatment Barnyard grass (herbicidal effect) [11] | Herbicidal effect Ec [12] | Herbicidal effect Xs [13] | Herbicidal effect Ga [14] | Herbicidal effect Am [15] | Herbicidal effect Vp [16] | other results |
| --- | --- | --- | --- | --- | --- | --- | --- | --- | --- | --- | --- | --- | --- | --- | --- | --- | --- | --- | --- | --- | --- |
| CCCNC(=O)c1nc2c(C)nn(C)c2cc1C(=O)Nc1c(CC)ccc(Cl)c1CC [compound 1197] | 5 (Weed-killing rate is 100%.) | 5 (Weed-killing rate is 100%.) | 5 (Weed-killing rate is 100%.) | 5 (Weed-killing rate is 100%.) | 5 (Weed-killing rate is 100%.) | 5 (Weed-killing rate is 100%.) | 5 (Crop-killing rate is 100%.) | 5 (Crop-killing rate is 100%.) | 5 (Crop-killing rate is 100%.) | 5 (Crop-killing rate is 100%.) | 5 (Weed-killing rate is 100%.) | 5 (Weed-killing rate is 100%.) | 5 (Weed-killing rate is 100%.) | 5 (Weed-killing rate is 100%.) | 5 (Weed-killing rate is 100%.) | 5 (Weed-killing rate is 100%.) | 5 (Weed-killing rate is 100%.) | 5 (Weed-killing rate is 100%.) | 5 (Weed-killing rate is 100%.) | 5 (Weed-killing rate is 100%.) | Herbicidal effect At [17]: 5 (Weed-killing rate is 100%.) |
| CCCNC(=O)c1nc2ncn(C)c2cc1C(=O)Nc1c(CC)ccc(Cl)c1CC [compound 1209] | 5 (Weed-killing rate is 100%.) | 5 (Weed-killing rate is 100%.) | 5 (Weed-killing rate is 100%.) | 5 (Weed-killing rate is 100%.) | 5 (Weed-killing rate is 100%.) | 5 (Weed-killing rate is 100%.) | 5 (Crop-killing rate is 100%.) | 5 (Crop-killing rate is 100%.) | 5 (Crop-killing rate is 100%.) | 5 (Crop-killing rate is 100%.) | 5 (Weed-killing rate is 100%.) | 5 (Weed-killing rate is 100%.) | 5 (Weed-killing rate is 100%.) | 5 (Weed-killing rate is 100%.) | 5 (Weed-killing rate is 100%.) | 5 (Weed-killing rate is 100%.) | 5 (Weed-killing rate is 100%.) | 5 (Weed-killing rate is 100%.) | 5 (Weed-killing rate is 100%.) | 5 (Weed-killing rate is 100%.) | Herbicidal effect At [17]: 5 (Weed-killing rate is 100%.) |
